Test [1] concerns adult dermal microvascular endothelial cells. The test can be described thus: MTS cell viability, rescue by sigma-1 agonists. It counts as cell-based, human. As to conditions: co-administration of equimolar concentrations (10 μM) of sigma-1 agonist. As for the experimental part: (§1) Human adult male dermal fibroblasts, adult mammary epithelial cells, adult dermal microvascular endothelial cells and bovine lens epithelial cells at low passage were exposed to 10 μM concentrations of the sigma-1 antagonists rimcazole and IPAG for up to 72 hours. Change in cell viability over time was measured in the MTS assay; data points represent mean values (±SD), obtained from wells in triplicate, expressed relative to baseline (pre-treatment) values. Graphs depict representative experiments, performed at least three times.

Test [2] concerns human lens cell line FHL124. Put plainly: FHL124 cell growth patch assay. It counts as cell-based. As to conditions: for growth of FHL124 cells: 4 days. The protocol: The effect of sigma ligands on human lens cell growth in FHL124 cell line maintained in serum-free media (A) or EMEM supplemented with 5% FCS (B). […] The cells were cultured for 4 days with experimental conditions. Experiments were repeated on 4 occasions. Data are expressed as Mean±S.E.M., the star represents significant difference from untreated control with rimcazole, and box represents significant difference from untreated control with (±)SKF 10047 (test p<0.05).
The effect of sigma-1 ligands on human lens cell growth in FHL 124 cell line maintained in serum-free media. A represents the data of patch area measurement. B represents the dye extraction from each stained patch, ie. cell number. The cells were cultured for 4 days with experimental conditions. Experiments were repeated on 4 occasions. Data are expressed as Mean±S.E.M, the star represents significant difference from untreated control with rimcazole, and ▪ represents significant difference from untreated control with (±)SKF10047 (test p<0.05).
The growth of the spontaneously immortal human lens cell line FHL124 was investigated using a patch assay. Cells grown from a single patch derived from a coverslip and stained with dye to estimate the cell number. […] (FIG. 6). […] Attenuation of rimcazole and BD-1047-mediated growth inhibition by a highly specific sigma-1 agonist confirms that growth inhibition is at least partly mediated through antagonism of sigma-1 sites.

In test [3] the test system is primary human lens epithelial cells on the posterior capsule. The test can be described thus: pigmentation of lens cells during growth inhibition assays. It counts as cell-based. As to conditions: sub-lethal dose (3 μM), control cells remained clear, FIG. 8, 9. The protocol:
Phase micrographs of cultured human lens cells on central anterior (upper) and posterior capsule (lower) respectively. The cells were maintained in serum-free or supplemented (3 μM Rimcazole) media for one week. The images were converted to grayscale with Adobe photoshop software.
Formation of pigment granules in human epithelial cells. A. Different stages of pigment granule formation (I-IV) as defined in MNT-1 melanoma cells by Seiji et al. 1963. B. Cross section of human lens epithelial cells grown in (a) control medium and (b) the presence of 3 μM BD1047.
(§2) The bags were maintained in Eagle's minimum essential medium (EMEM) or EMEM supplemented with either 3 μM Rimcazole dihydrochloride (rimcazole), 10 μm(+)-SKF 10047 hydrochloride (SKF), and 3 μM or 10 μM BD1047 dihydrochloride (BD1047) (all supplied by TOCRIS) and incubate at 35° C. in a 5% CO2 atmosphere. The medium was replaced every 2 days and ongoing observations and analyses were performed as above.
This pigmentation was also present in cells similarly tested on the rhexis (anterior capsule) removed during preparation of the capsular bag (FIG. 8) and in the FHL-124 lens cell line (not shown). […]

Test [4] relates to human lens epithelial cells. The test can be described thus: efflux of radioactive isotopes (3H-dopamine, 14C-tyrosine) in capsular bags. As to conditions: capsular bag system, 3 μM rimcazole. It counts as cell-based. The protocol:
Efflux of (A) ^3H-dopamine and (B) ^14C-tyrosine from human lens epithelial cells in control (SF) and rimcazole supplemented media. Data are presented as mean±6 separate experiments.
Capsular bags were maintained in Eagle's minimum essential medium (EMEM) or EMEM supplemented with 3 μM. Rimcazole dihydrochloride (rimcazole) (TOCRIS) for 7 days (when the pigment granules could be observed in cells). 1 μCl/ml of ^3H-dopamine and 2 μCi/ml of ^14C-tyrosine (Amersham Biosciences) were then added to each dish for an additional 24 hours. At the end point, 10 μl of medium were collected from each dish, and transferred into scintillation vials. The bags were washed briefly twice with EMEM and fresh control or experimental media added for one hour. The medium was then collected into scintillation vials and the procedure repeated eights times. The experiment was then terminated by adding 1 ml of ice-cold 5% Trichloroacetic acid (TCA) (Fisher Chemicals) to each dish. After 30 minutes, the TCA was removed from each well to determine the cytosolic dopamine and tyrosine levels. 1 ml of 250 mM NaOH was then added to each dish to determine the radio-isotope levels in the TCA precipitable fraction. 10 mls of scintillation fluid (Hisafe Supermix) were then added to each scintillation vial and the samples assayed using a Wallac scintillation counter with appropriate background controls. […]

Test [5] deals with bovine lens epithelial cells. The test can be described thus: in vitro cell death assay (MTS cell viability) on tissue culture plastic. The format is cell-based. As to conditions: 10 μM, up to 72 hours, FIG. 1. As for the experimental part: as §1
Test [6] concerns human lens epithelial cells on the posterior capsule. The test can be described thus: in vitro capsular bag growth assay (cell coverage of the posterior capsule). The format is cell-based. As to conditions: for growth of human lens cells on the posterior capsule: 3 μm, FIG. 2, FIG. 3. The protocol: Rate of cell coverage of the posterior capsule beyond the rhexis; 100% represents confluency. Experiments were repeated on 4 occasions. The means and standard errors are display ed.
(§3) Rate of cell coverage of the posterior capsule beyond the rhexis; 100% represents confluency. Experiments were repeated on 4 occasions.
The model previously described by Liu et al (1996) was used. A sham cataract operation was performed on human donor eyes. The resultant capsular bag was then dissected free of the zonules and secured on a sterile 35 mm PMMA petri dish. Eight entomological pins (D1: Watkins and Doncaster Ltd., Kent, UK) were inserted through the edge of the capsule to retain its circular shape. Incubation was at 35° C. in a 5% CO2 atmosphere. Ongoing observations were performed with a Nikon phase-contrast microscope and images captured with a digital camera (Coolpix 950; Nikon. Tokyo, Japan) with associated imaging software (a person, personal communication). In some cases preparations were used for radioactive isotope studies.
as §2

The subject of test [7] is lens epithelial cells in the presence of the bovine capsule. As to conditions: versus cells cultured in isolation; cited from earlier work.
In another test the test system is tumour cells. Put plainly: tumour cell growth inhibition / killing. It counts as cell-based, human. As to conditions: read-out: IC50 (concentration of drug required to produce 50% growth inhibition) for tumour cells.
Excerpt: It has therefore been proposed that the subcellular localisation of the sigma receptor may contribute to the degree of susceptibility to sigma ligands (Spruce et al Cancer Research 2004). Without wishing to be bound by theory, the present inventors postulated that differential subcellular localisation of the sigma receptor, or other factors, could lead to sigma ligands being differentially potent in lens epithelial cells compared to tumour cells. […] Specifically, the IC50 (the concentration of drug required to produce 50% growth inhibition) of BD-1047 for tumour cells is in the region 50-100 micromolar; in contrast, the IC50 for human lens epithelial cells (in the capsular bag system) is in the region of 10 micromolar.
as §3

SMILES strings stand for the structures.

For `C=CCN1CCC2(C)c3cc(O)ccc3CC1C2C.Cl` (single isomer, unassigned; (+)) [(+)-SKF10047, (+)-SKF 10047 hydrochloride], the “protection of microvascular endothelial cells from rimcazole and IPAG” value in test [1] is listed as “protected”. For the same compound, in test [2] (both concentrations, serum free medium, FIG. 5), the “rescue of sigma antagonist (rimcazole)-mediated growth inhibition of FHL124 cells” value was “partially rescues”. In test [2] (higher concentrations of BD1047 (10 and 30 μm), FIG. 6), the “restoration of growth to BD1047 inhibited FHL124 cells” value was “partially restores growth”.

For `C[C@@H]1CN(CCCn2c3ccccc3c3ccccc32)C[C@H](C)N1` [Rimcazole], in test [3], the “pigmentation of primary human lens epithelial cells” value is on record as “become pigmented”. Moreover, in test [4] (FIG. 10A), the dopamine efflux result is “unaffected”. The “efflux of 14C-tyrosine from lens cells” value in test [4] (FIG. 10B) is on record as “no effect”. Further, the “susceptibility of primary bovine lens cells in tissue culture compared with tumour cells” value in test [5] is “almost as susceptible”. The “growth of human lens cells on the posterior capsule” value in test [6] was “inhibits growth”. For the same compound, the “cell killing in human lens epithelial cells” value in test [6] (contained in the human capsular bag system) is “potently induces cell killing”. Besides, the “growth of FHL124 cells” value in test [2] (3 and 10 μm, serum free medium, FIG. 5) is on record as “significantly inhibited”; in test [2] (5% FCS, higher dose (10 μm), FIG. 5), “growth inhibition is less marked”. The “ability to induce apoptosis in lens epithelial cells” value in test [7] is “substantially less able to induce apoptosis”.

Take `CN(C)CCN(C)CCc1ccc(Cl)c(Cl)c1` [BD1047]: in test [3], the “pigmentation of primary human lens epithelial cells” value is “become pigmented”. In test [6], the “growth of human lens cells on the posterior capsule” value is on record as “less inhibitory”. In addition, the “growth of lens cells on the capsule” value in test [6] (10 μm, FIG. 4) was “potently inhibits growth”. The figures for the IC50 (in test [6] (in the capsular bag system); with tumour cells) were ~10 µM and 50 to 100 µM, respectively. Also, the “growth inhibition of FHL124 cells (patch size, protein content)” value in test [2] (lower dose (10 μm), serum-free, FIG. 6) is reported as “less effective”.

For `NC(=NC1C2CC3CC(C2)CC1C3)Nc1ccc(I)cc1` (centres unmarked) [IPAG], in test [5], the “susceptibility of primary bovine lens cells in tissue culture compared with tumour cells” value is given as “almost as susceptible”.

Regarding `CC(C)=CCN1CCC2(C)c3cc(O)ccc3CC1C2C` (single isomer, unassigned; (+)) [(+)-pentazocine], the “protection of microvascular endothelial cells from rimcazole and IPAG” value in test [1] was “protected”.

The values above are taken from patent publication US20090036464A1, “Treatment Of Posterior Capsule Opacification” (priority 2004, published 2009).
